Measured values as given in patent US8338472B2, “Hexahydrocyclopentyl[F]indazole carboxamides and derivatives thereof as selective glucocorticoid receptor modulators” (Merck Sharp & Dohme Corp., priority 2008, dated 2012).
Read-outs that look alike come from different tables or passages of the source.

Key:
Glucocorticoid Receptor = target: T1, Glucocorticoid Receptor (Homo sapiens, UniProt P04150); assay: Trans-Activation Modulation of Glucocorticoid Receptor (GRAMMER), MMTV-LUC reporter gene in A549 cells; type: cell-based; details: Table 1; for Transactivation A549 Cells GRAMMER Emax / Emax: Emax relative to 300 nM dexamethasone; for EC50: inflection point, read-out: Transactivation A549 Cells GRAMMER IP; for Transactivation A549 Cells GRAMMER Emax / EC50: A549 cells; for Emax: A549, A549 cells, read-out: Transactivation A549 Cells GRAMMER Emax
T1 construct: These cells express large amount of the GR and are very responsive to GC treatment; endogenous in cells; host or cells: A549 cells transiently transfected with the MMTV-LUC reporter
T1 sequence (P04150 1-777): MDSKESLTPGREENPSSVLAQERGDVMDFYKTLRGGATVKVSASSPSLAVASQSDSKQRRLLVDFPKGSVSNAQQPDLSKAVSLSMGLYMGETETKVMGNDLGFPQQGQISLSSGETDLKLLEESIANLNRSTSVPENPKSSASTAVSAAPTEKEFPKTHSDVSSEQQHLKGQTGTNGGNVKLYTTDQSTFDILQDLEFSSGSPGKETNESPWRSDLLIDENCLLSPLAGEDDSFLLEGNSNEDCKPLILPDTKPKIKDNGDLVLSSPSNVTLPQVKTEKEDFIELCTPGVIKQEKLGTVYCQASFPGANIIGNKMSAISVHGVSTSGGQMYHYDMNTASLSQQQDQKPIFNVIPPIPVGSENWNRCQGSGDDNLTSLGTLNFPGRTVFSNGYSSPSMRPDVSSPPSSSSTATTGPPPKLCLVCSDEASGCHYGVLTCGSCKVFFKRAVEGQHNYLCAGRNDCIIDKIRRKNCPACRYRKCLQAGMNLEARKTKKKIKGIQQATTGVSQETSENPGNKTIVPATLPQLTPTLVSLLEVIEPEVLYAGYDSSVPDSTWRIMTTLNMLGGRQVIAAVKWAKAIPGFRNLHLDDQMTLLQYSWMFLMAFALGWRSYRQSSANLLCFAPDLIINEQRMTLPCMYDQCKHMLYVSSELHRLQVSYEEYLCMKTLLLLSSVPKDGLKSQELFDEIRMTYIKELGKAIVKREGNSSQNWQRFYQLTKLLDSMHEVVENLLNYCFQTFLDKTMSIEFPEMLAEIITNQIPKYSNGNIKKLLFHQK
Procedure, shortened: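 Luciferase from a transiently transfected MMTV-LUC reporter was measured after 24 h compound exposure (≤1% DMSO) in A549 or MDA-MB-453 cells. For antagonism, the decrease of 10 nM dexamethasone-induced signal was calculated. For agonism, Emax was referenced to 300 nM dexamethasone.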

human GR = target: T2, human GR (Homo sapiens, UniProt P04150); assay: Transrepression Assay (GITAR), TNFα-β-lactamase reporter gene in U937 cells; type: cell-based; details: for GITAR Greater than by GRAMMER % SEP: GITAR Emax minus GRAMMER Emax; for EC50: inflection point, read-out: Transrepression U937 Cells GITAR IP; for EC50 / Transrepression U937 Cells GITAR Emax: U937 cells
T2 construct: U937 cells contain an endogenous glucocorticoid receptor (GR); endogenous in cells; host or cells: U937 cells stably transfected with the TNF-alpha promoter/beta-lactamase reporter
T2 sequence (P04150 1-777): T1 sequence (P04150 1-777)
Procedure, shortened: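 Repression of PMA (5 ng/ml final)/LPS (100 ng/ml final)-induced TNF-α promoter activity, read as β-lactamase cleavage of CCF2-AM, in stably transfected U937 cells expressing native GR. Compound added 30-45 min before stimulation, overnight (~18 hr) 37° C; normalized to 100 nM dexamethasone (100%).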

[1] = target: T3, glucocorticoid receptor (GR) (Homo sapiens, UniProt P04150); assay: Ligand binding assay (GR BIND), 3H-dexamethasone displacement in MDA-MB-453 cell lysate; details: GR BIND Ki, Table 1
T3 sequence (P04150 1-777): T1 sequence (P04150 1-777)
Protocol: Binding Buffer: TEGM (10 mM Tris-HCl, 1 mM EDTA, 10% glycerol, 1 mM beta-mecaptoethanol, 10 mM Sodium Molybdate, pH 7.2)
50% HAP Slurry: Calbiochem Hydroxylapatite, Fast Flow, in 10 mM Tris, pH 8.0 and 1 mM EDTA.
Wash Buffer: 40 mM Tris, pH7.5, 100 mM KCl, 1 mM EDTA and 1 mM EGTA.
Dexmethasone-methyl-^3H, (DEX*); (Amersham cat# TRK645)
Dexamethasone(DEX) (Sigma, cat# D1756):
The cell pellet is washed twice with TEGM (10 mM Tris-HCl, 1 mM EDTA, 10% glycerol, 1 mM beta-mercaptoethanol, 10 mM Sodium Molybdate, pH 7.2). After the final wash, the cells are resuspended in TEGM at a concentration of 10^7 cells/mL. The cell suspension is snap frozen in liquid nitrogen or ethanol/dry ice bath and transferred to −80° C. freezer on dry ice. Before setting up the binding assay, the frozen samples are left on ice-water to just thaw (˜1 hr). Then the samples are centrifuged at 12,500 g to 20,000 g for 30 min at 4° C. The supernatant is used to set-up assay right away. If using 50 μL of supernatant, the test compound can be prepared in 50 μL of the TEGM buffer.
Procedure for Multiple Compound Screening
1×TEGM buffer is prepared, and the isotope-containing assay mixture is prepared in the following order: EtOH (2% final concentration in reaction), ^3H-DEX (Amersham Biosciences) and 1×TEGM. [e.g. For 100 samples, 200 μL (100×2) of EtOH+4.25 μL of 1:10 ^3H-Dex stock+2300 μL (100×23) 1×TEGM]. The compound is serially diluted, e.g., if starting final conc. is 1 μM, and the compound is in 25 μL of solution, for duplicate samples, 75 μL of 4×1 μM solution is made and 3 μL of 100 μM is added to 72 μL of buffer, and 1:5 serial dilution.
25 μL of ^3H-DEX (6 nM) trace and 25 μL compound solution are first mixed together, followed by addition of 50 μL receptor solution. The reaction is gently mixed, spun briefly at about 200 rpm and incubated at 4° C. overnight. 100 μL of 50% HAP slurry is prepared and added to the incubated reaction which is then vortexed and incubated on ice for 5 to 10 minutes. The reaction mixture is vortexed twice more to resuspend HAP while incubating reaction. The samples in 96-well format are then washed in wash buffer using The FilterMate™ Universal Harvester plate washer (Packard). The washing process transfers HAP pellet containing ligand-bound expressed receptor to Unifilter-96 GF/B filter plate (Packard). The HAP pellet on the filter plate is incubated with 50 μL of MICROSCINT (Packard) scintillint for 30 minutes before being counted on the TopCount microscintillation counter (Packard). IC50s are calculated using DEX as a reference.

[2] = U-937, U937 cells, activity repressed by 100 nM dexamethasone = 100%, Table 1, read-out: Transrepression U937 Cells GITAR Emax
[3] = U-937, text statement, 100 nM dexamethasone = 100%, read-out: maximal activity in the transrepression assay (GITAR)
[4] = activity repressed by 100 nM dexamethasone = 100%, Table 1

| SMILES | Transactivation A549 Cells GRAMMER Emax (Glucocorticoid Receptor) [%] | EC50 (Glucocorticoid Receptor) [µM] | GITAR Greater than by GRAMMER % SEP (human GR; Table 1) [%] | Emax (human GR; [2]) [%] | Emax (human GR; [3]) [%] | EC50 (human GR; Table 1) [µM] | Ki [1] [µM] | Transrepression U937 Cells GITAR Emax (human GR; [4]) [%] | Emax (Glucocorticoid Receptor) [%] |
| --- | --- | --- | --- | --- | --- | --- | --- | --- | --- |
| CN(CC(O)C(F)(F)F)C(=O)[C@H]1CCC2=Cc3c(cnn3-c3ccccc3)C[C@@]21C (stereo partly drawn) [Compound 74, (4αR,5S)-N,4α-dimethy1-1-phenyl-N-(3,3,3-trifluoro-2-hydroxypropyl)-1,4,4α,5,6,7-hexahydrocyclopenta[f]indazole-5-carboxamide] | 38.8 | 0.276 | 35.1 | 73.9 | > 5 | 0.381 | 0.0106 | – | – |
| CCN(CC(O)C(F)(F)F)C(=O)[C@H]1CCC2=Cc3c(cnn3-c3ccccc3)C[C@@]21C (stereo partly drawn) [Compound 76, (4αR,5S)-N-ethyl-4α-methyl-1-phenyl-N-(3,3,3-trifluoro-2-hydroxypropyl)-1,4,4α,5,6,7-hexahydrocyclopenta[f]indazole-5-carboxamide] | – | 0.314 | 6.1 | 84.3 | > 5 | 0.225 | 0.0042 | – | 78.2 |
| CCN(CC(O)C(F)(F)F)C(=O)[C@H]1CCC2=Cc3c(cnn3-c3ccccc3)C[C@@]21C (stereo partly drawn) [Compound 77, (4αR,5S)-N-ethyl-4α-methyl-1-phenyl-N-(3,3,3-trifluoro-2-hydroxypropyl)-1,4,4α,5,6,7-hexahydrocyclopenta[f]indazole-5-carboxamide] | 67.8 | 0.304 | 10.2 | – | – | 0.266 | 0.0098 | 78.0 | – |
| C[C@]12Cc3cnn(-c4ccccc4)c3C=C1CC[C@@H]2C(=O)N(CC1CC1)CC(O)C(F)(F)F (stereo partly drawn) [Compound 81, (4αR,5S)-N-(cyclopropylmethyl)-4α-methyl-1-phenyl-N-(3,3,3-trifluoro-2-hydroxypropyl)-1,4,4α,5,6,7-hexahydrocyclopenta[f]indazole-5-carboxamide] | – | 0.293 | 7.8 | 75.6 | > 5 | 0.337 | 0.0036 | – | 67.8 |
| Cc1ccc(CCN(CC(O)C(F)(F)F)C(=O)[C@H]2CCC3=Cc4c(cnn4-c4ccc(F)cc4)C[C@@]32C)cc1 (stereo partly drawn) [Compound 82, (4αR,5S)-1-(4-fluorophenyl)-4α-methyl-N-[2-(4-methylphenyl)ethyl]-N-(3,3,3-trifluoro-2-hydroxypropyl)-1,4,4α,5,6,7-hexahydrocyclopenta[f]indazole-5-carboxamide] | – | 0.274 | 32.8 | 43.1 | > 5 | 0.362 | 0.0009 | – | 10.3 |
| COc1ccccc1CCN(CC(O)C(F)(F)F)C(=O)[C@H]1CCC2=Cc3c(cnn3-c3ccc(F)cc3)C[C@@]21C (stereo partly drawn) [Compound 83, (4αR,5S)-1-(4-fluorophenyl)-N-[2-(2-methoxyphenyl)ethyl] -4α-methyl-N-(3,3,3-trifluoro-2-hydroxypropyl)-1,4,4α,5,6,7-hexahydrocyclopenta[f]indazole-5-carboxamide] | – | 0.366 | 35.3 | 56.9 | > 5 | 0.293 | 0.0022 | – | 21.6 |
| Cc1ccc(CCN(CC(O)CC(F)(F)F)C(=O)[C@H]2CCC3=Cc4c(cnn4-c4ccc(F)cc4)C[C@@]32C)cc1 (stereo partly drawn) [Compound 85, (4αR,5S)-1-(4-fluorophenyl)-4α-methyl-N-[2-(4-methylphenyl)ethyl]-N-(4,4,4-trifluoro-2-hydroxybutyl)-1,4,4α,5,6,7-hexahydrocyclopenta[f]indazole-5-carboxamide] | – | 0.399 | 31.1 | 45.3 | > 5 | 0.818 | 0.0035 | – | 14.2 |
| COc1ccccc1CCN(CC(O)CC(F)(F)F)C(=O)[C@H]1CCC2=Cc3c(cnn3-c3ccc(F)cc3)C[C@@]21C (stereo partly drawn) [Compound 86, (4αR,5S)-1-(4-fluorophenyl)-N-[2-(2-methoxyphenyl)ethyl]-4α-methyl-N-(4,4,4-trifluoro-2-hydroxybutyl)-1,4,4α,5 ,6,7-hexahydrocyclopenta[f]indazole-5-carboxamide] | – | 0.412 | 35.1 | 53.9 | > 5 | 0.869 | 0.0115 | – | 18.8 |
| C[C@]12Cc3cnn(-c4ccc(F)cc4)c3C=C1CC[C@@H]2C(=O)N(CCc1ccccc1F)CC(O)CC(F)(F)F (stereo partly drawn) [Compound 87, (4αR,5S)-1-(4-fluorophenyl)-N-[2-(2-fluorophenyl)ethyl]-4α-methyl-N-(4,4,4-trifluoro-2-hydroxybutyl)-1,4,4α,5,6,7-hexahydrocyclopenta[f]indazole-5-carboxamide] | 38.0 | 0.287 | 23.1 | – | > 5 | 0.233 | 0.0008 | 61.1 | – |

The next molecules have a lower EC50 (Glucocorticoid Receptor) than those just listed; values first:

| Transactivation A549 Cells GRAMMER Emax (Glucocorticoid Receptor) [%] | EC50 (Glucocorticoid Receptor) [µM] | GITAR Greater than by GRAMMER % SEP (human GR; Table 1) [%] | Emax (human GR; [2]) [%] | Emax (human GR; [3]) [%] | EC50 (human GR; Table 1) [µM] | Ki [1] [µM] | Transrepression U937 Cells GITAR Emax (human GR; [4]) [%] | Emax (Glucocorticoid Receptor) [%] | SMILES |
| --- | --- | --- | --- | --- | --- | --- | --- | --- | --- |
| 65.2 | 0.164 | 18.9 | – | – | 0.181 | 0.0076 | 84.0 | – | CN(CC(O)C(F)(F)F)C(=O)[C@H]1CCC2=Cc3c(cnn3-c3ccccc3)C[C@@]21C (stereo partly drawn) [Compound 75, (4αR,5S)-N,4α-dimethyl-1-phenyl-N-(3,3,3-trifluoro-2-hydroxypropyl)-1,4,4α,5 ,6,7-hexahydrocyclopenta[f]indazole-5-carboxamide] |
| – | 0.165 | 21.0 | 86 | > 5 | 0.179 | 0.0027 | – | 65 | CCCN(CC(O)C(F)(F)F)C(=O)[C@H]1CCC2=Cc3c(cnn3-c3ccccc3)C[C@@]21C (stereo partly drawn) [Compound 78, (4αR,5S)-4α-methyl-1-phenyl-N-propyl-N-(3,3,3-trifluoro-2-hydroxypropyl)-1,4,4α,5,6,7-hexahydrocyclopenta[f]indazole-5-carboxamide] |
| – | 0.18 | 17.6 | 88.3 | > 5 | 0.163 | 0.0038 | – | 70.7 | CCCCN(CC(O)C(F)(F)F)C(=O)[C@H]1CCC2=Cc3c(cnn3-c3ccccc3)C[C@@]21C (stereo partly drawn) [Compound 79, (4αR,5S)-N-butyl-4α-methyl-1-phenyl-N-(3,3,3-trifluoro-2-hydroxypropyl)-1,4,4α,5,6,7-hexahydrocyclopenta[f]indazole-5-carboxamide] |
| – | 0.222 | 12.8 | 83.2 | > 5 | 0.337 | 0.0037 | – | 70.5 | CC(C)CN(CC(O)C(F)(F)F)C(=O)[C@H]1CCC2=Cc3c(cnn3-c3ccccc3)C[C@@]21C (stereo partly drawn) [Compound 80, (4αR,5S)-N-isobutyl-4a-methyl-1-phenyl-N-(3,3,3-trifluoro-2-hydroxypropyl)-1,4,4α,5,6,7-hexahydrocyclopenta[f]indazole-5-carboxamide] |
| 43.7 | 0.188 | 25.7 | – | > 5 | 0.191 | 0.0008 | 69.4 | – | C[C@]12Cc3cnn(-c4ccc(F)cc4)c3C=C1CC[C@@H]2C(=O)N(CCc1ccccc1F)CC(O)C(F)(F)F (stereo partly drawn) [Compound 84, (4αR,5S)-1-(4-fluorophenyl)-N-[2(2-fluorophenyl)ethyl]-4α-methyl-N-(3,3,3-trifluoro-2-hydroxypropyl)-1,4,4α,5,6,7-hexahydrocyclopenta[f]indazole-5-carboxamide] |
